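Each compound was tested at five concentrations against cells in 96-well plates for 48 hours. GI50: concentration for 50% inhibition of growth.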 Active and inactive are the calls of the source. No stated cut-off is given here; in the data, active = GI50 up to about 1.1 µM and inactive = higher. Where a SMILES comes first, the peptide text is derived from it. [ ]: non-standard residue; d: D form. The star is where a group is joined. ξ: configuration not given here. X4 = COc1ccc(C(N*)c2ccc(OC)cc2)cc1; NMeF = CN[C@@H](Cc1ccccc1)C(=O)O; NMeD = CN[C@@H](CC(=O)O)C(=O)O; NMeV = CN[C@H](C(=O)O)C(C)C; ξNMeV = CNC(C(=O)O)C(C)C; Boc = CC(C)(C)OC(=O)*; ξNMeA = CNC(C)C(=O)O; ξV = CC(C)C(N)C(=O)O
Columns and labels:
Experiment in all cases: growth of human tumour cells (NCI), 48 h
DMS-114 = system: DMS-114
DMS-273 = system: DMS-273
HOP-18 = system: HOP-18
LXFL 529 = system: LXFL 529
M19-MEL = system: M19-MEL
SNB-78 = system: SNB-78
XF498 = system: XF498
KM-20L2 = system: KM-20L2
RXF 631 = system: RXF 631

Row | SMILES | GI50 (DMS-114) | GI50 (DMS-273) | GI50 (HOP-18) | GI50 (LXFL 529) | GI50 (M19-MEL) | GI50 (SNB-78) | GI50 (XF498) | GI50 (KM-20L2) | GI50 (RXF 631)
1 | Cc1c(CNc2ccc(C(=O)NC(CC(=O)O)C(=O)O)cc2)ccc2nc(N)nc(N)c12 (stereo not drawn) | < 0.01 µM (active) | < 0.01 µM (active) | 0.867 µM (active) | < 0.01 µM (active) | 0.122 µM (active) | > 100 µM (inactive) | 68.1 µM (inactive) |  | 
2 | CC12Oc3ccc4ccccc4c3C1c1c(ccc3ccccc13)O2 (stereo not drawn) | > 100 µM (inactive) | > 100 µM (inactive) |  | > 100 µM (inactive) | > 100 µM (inactive) | > 100 µM (inactive) | > 100 µM (inactive) | > 100 µM (inactive) | 
3 | Cc1cc2c(C)nn(Cc3ccccc3)c2c(C(N)=O)c1C | > 100 µM (inactive) | > 100 µM (inactive) |  | > 100 µM (inactive) | > 100 µM (inactive) | > 100 µM (inactive) | > 100 µM (inactive) | > 100 µM (inactive) | 
4 | C[N+](C)(C)CC(=O)N/N=C(/Cc1nc2c3c(ccc2nc1O)C(=O)c1ccccc1C3=O)C(=O)Nc1ccc(Cl)c(Cl)c1 | 27 µM (inactive) |  |  |  | 38.2 µM (inactive) |  |  | > 100 µM (inactive) | 76.6 µM (inactive)
5 | COc1ccc(C(NC(=O)C[C@@H](C(=O)N(C)C(C)C(=O)O)N(C)C(=O)[C@@H]2CCCN2C(=O)[C@H](C(C)C)N(C)C(=O)C(C(C)C)N(C)C(=O)[C@H](Cc2ccccc2)N(C)C(=O)C(NC(=O)OC(C)(C)C)C(C)C)c2ccc(OC)cc2)cc1 (stereo partly drawn) (Boc-[ξV][NMeF][ξNMeV][NMeV]P[NMeD](X4)[ξNMeA]-OH) | 16.5 µM (inactive) | 17.2 µM (inactive) |  | 14.7 µM (inactive) | 16.9 µM (inactive) | 15.8 µM (inactive) | 15.8 µM (inactive) | 19.9 µM (inactive) | 
6 | O=C(Cc1nc2ccccc2c(=O)n1-c1c(Cl)cccc1Cl)c1ccncc1 | 25.2 µM (inactive) | 19.4 µM (inactive) | 33.8 µM (inactive) | 27.7 µM (inactive) | 20.3 µM (inactive) | 34.1 µM (inactive) |  | 27.5 µM (inactive) | 23.9 µM (inactive)
7 | Clc1ncnc2c1ncn2CCCCCCCCCCCCn1cnc2c(Cl)ncnc21 | 1.67 µM (inactive) | 2.71 µM (inactive) | 17.1 µM (inactive) | 4.44 µM (inactive) | 2.27 µM (inactive) | 3.56 µM (inactive) | 9.38 µM (inactive) | 16.1 µM (inactive) | 
8 | Cn1c(=O)oc2cc(C3CCC(=O)N3Cc3ccc(Cl)cc3)ccc21 (stereo not drawn) | > 100 µM (inactive) | > 100 µM (inactive) | > 100 µM (inactive) | > 100 µM (inactive) | > 100 µM (inactive) | > 100 µM (inactive) | > 100 µM (inactive) | > 100 µM (inactive) | 
9 | Cc1nc(-c2nc(C)c(C(=O)/C=C/c3ccc([N+](=O)[O-])cc3)s2)sc1C(=O)/C=C/c1ccc([N+](=O)[O-])cc1 | > 100 µM (inactive) |  |  | > 100 µM (inactive) | > 100 µM (inactive) | > 100 µM (inactive) |  | > 100 µM (inactive) | 
10 | CC1=NN(C(=O)c2ccccc2O)C(=O)/C1=C/c1ccc([N+](=O)[O-])cc1 | 0.0875 µM (active) |  |  | 0.0586 µM (active) | 2.3 µM (inactive) | 0.0861 µM (active) | 0.664 µM (active) | 7.96 µM (inactive) | 
11 | COc1ccc(CC2(Cc3ccc(OC)cc3)CCOC2=O)cc1 | 23.9 µM (inactive) |  |  | > 100 µM (inactive) | > 100 µM (inactive) |  | 0.582 µM (active) |  | 
12 | COC(=O)c1c(CC(=O)OC(C)C)cc2n(c1=O)Cc1c-2nc2ccccc2c1OC | > 100 µM (inactive) | > 100 µM (inactive) | > 100 µM (inactive) | > 100 µM (inactive) | > 100 µM (inactive) |  | > 100 µM (inactive) | > 100 µM (inactive) | 
13 | CC(C)(C)c1nc2c(o1)/C(=N\c1ccc(F)cc1)c1ccccc1C2=O | 0.902 µM (active) | 1.73 µM (inactive) | 15.2 µM (inactive) | 4.4 µM (inactive) | 1.13 µM (inactive) | 56 µM (inactive) | 1.71 µM (inactive) | 17.1 µM (inactive) | 
14 | C[N+](C)(C)CC1CCC/C1=N\OC(=O)c1ccccc1 (stereo not drawn) | > 100 µM (inactive) |  | > 100 µM (inactive) | > 100 µM (inactive) | > 100 µM (inactive) | > 100 µM (inactive) | > 100 µM (inactive) | > 100 µM (inactive) | 
15 | c1ccc([P+](CCC[P+](c2ccccc2)(c2ccccc2)c2ccccc2)(c2ccccc2)c2ccccc2)cc1 | 16.5 µM (inactive) | 9.91 µM (inactive) | 54.7 µM (inactive) | 11.3 µM (inactive) | 19.9 µM (inactive) | 52.8 µM (inactive) | 23.7 µM (inactive) | 33.5 µM (inactive) | > 100 µM (inactive)
16 | O=C(/C=C/c1ccccc1Cl)c1ccc(Cl)cc1Cl | 11.8 µM (inactive) | 15.7 µM (inactive) | 17 µM (inactive) | 16.2 µM (inactive) | 18 µM (inactive) | 19.1 µM (inactive) |  | 15.1 µM (inactive) | 19 µM (inactive)
17 | CCOC(=O)/C(=C\c1ccc[nH]1)C(=O)c1ccccc1 | 34.3 µM (inactive) | 26.2 µM (inactive) | 78.9 µM (inactive) | > 100 µM (inactive) | > 100 µM (inactive) | > 100 µM (inactive) | > 100 µM (inactive) | > 100 µM (inactive) | > 100 µM (inactive)
18 | C/C(=N\NC(=N)N)C(CN1CCCCC1)C(c1ccccc1)c1c(O)c2ccccc2oc1=O (stereo not drawn) | > 100 µM (inactive) |  |  | > 100 µM (inactive) | > 100 µM (inactive) |  | > 100 µM (inactive) | > 100 µM (inactive) | > 100 µM (inactive)
19 | CCOC(=O)NC(=O)c1cn(CCN2CCN(c3ncnc4[nH]cnc34)CC2)c(=O)[nH]c1=O | > 100 µM (inactive) |  | > 100 µM (inactive) | > 100 µM (inactive) | > 100 µM (inactive) |  | > 100 µM (inactive) | > 100 µM (inactive) | > 100 µM (inactive)
20 | C#CCNC(=O)ON1C(=O)CCC1=O |  | > 100 µM (inactive) | > 100 µM (inactive) | > 100 µM (inactive) | > 100 µM (inactive) | > 100 µM (inactive) |  | > 100 µM (inactive) | > 100 µM (inactive)
21 | O=C(CCCCCCCCCCc1ccccc1)c1c(O)cccc1O | 20.7 µM (inactive) | 18.2 µM (inactive) | 29.1 µM (inactive) | 18.6 µM (inactive) | 20.7 µM (inactive) | 45.7 µM (inactive) | 20.2 µM (inactive) | 61.7 µM (inactive) | 30.8 µM (inactive)
22 | CCO/C(CCn1[nH]c(=O)c(Cl)c(Cl)c1=O)=N\NC(=O)C(=O)NN | > 100 µM (inactive) | > 100 µM (inactive) | > 100 µM (inactive) | > 100 µM (inactive) | > 100 µM (inactive) |  | > 100 µM (inactive) | > 100 µM (inactive) | > 100 µM (inactive)
23 | CC1=C(C(=O)NCc2ccccc2)C(c2ccc(N(C)C)cc2)C(C(=O)NCc2ccccc2)=C(C)N1 | > 100 µM (inactive) | > 100 µM (inactive) |  | > 100 µM (inactive) | > 100 µM (inactive) | > 100 µM (inactive) | > 100 µM (inactive) | > 100 µM (inactive) | > 100 µM (inactive)
24 | COC(=O)CCCN(C)c1nc(N)n[nH]1 | > 100 µM (inactive) | > 100 µM (inactive) |  | > 100 µM (inactive) | > 100 µM (inactive) | > 100 µM (inactive) |  | > 100 µM (inactive) | 
25 | N=S(c1ccccc1[N+](=O)[O-])c1ccccc1[N+](=O)[O-] |  | 2.16 µM (inactive) | 6.11 µM (inactive) | 2.96 µM (inactive) | 3.3 µM (inactive) | 2.68 µM (inactive) |  |  | 1.8 µM (inactive)
26 | COc1ccc(C2[C@H]3C(=O)N(c4ccc(Cc5ccc(N6C(=O)[C@@H]7ON(c8ccccc8)C(c8ccc(OC)cc8)[C@@H]7C6=O)cc5)cc4)C(=O)[C@H]3ON2c2ccccc2)cc1 (stereo partly drawn) |  | > 100 µM (inactive) | > 100 µM (inactive) | > 100 µM (inactive) | > 100 µM (inactive) | > 100 µM (inactive) |  | > 100 µM (inactive) | 
27 | Cc1cc(Cl)ccc1NC(=O)CCCC(=O)C1CCCC1=O (stereo not drawn) | > 100 µM (inactive) | > 100 µM (inactive) | > 100 µM (inactive) | > 100 µM (inactive) | > 100 µM (inactive) | > 100 µM (inactive) | > 100 µM (inactive) | > 100 µM (inactive) | 
28 | C/C(=C1/N=C(c2cc([N+](=O)[O-])ccc2Cl)N(c2cccc(C)c2)C1=O)c1cc2ccccc2oc1=O | 27.1 µM (inactive) | 80.7 µM (inactive) | 74.6 µM (inactive) | 84.9 µM (inactive) | 66.2 µM (inactive) | > 100 µM (inactive) | 21 µM (inactive) | > 100 µM (inactive) | > 100 µM (inactive)
29 | COc1ccccc1NC(=O)C1=C(C)NC(C)=C(C(=O)Nc2ccccc2OC)C1c1cccc2ccccc12 | 25.6 µM (inactive) | 80.9 µM (inactive) | 76.7 µM (inactive) | 28.1 µM (inactive) | 90.4 µM (inactive) | 4.44 µM (inactive) | 45.3 µM (inactive) | > 100 µM (inactive) | 87.9 µM (inactive)

Reference: ChEMBL document CHEMBL1201862, “PubChem BioAssay data set” (2004)
